Inconclusive results and toxic doses are left out. The calls were made as follows: active = survival T/C of 150% or more; inactive = T/C below 125% in these data.
Test system: CD2F1 mice, L1210 leukemia ip, survival T/C
Assay: NCI In Vivo Anticancer Drug Screen. Data for tumor model L1210 Leukemia (intraperitoneal) in CD2F1 (CDF1) mice
Details: higher = longer survival
Method in brief: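 Compound-dosed mice with transplantable tumor versus matched vehicle controls; endpoint ratio T/C reported.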

[1] = endpoint: mean survival time, dose: 100.0 mg/kg/injection, schedule: Q01DX001 (ip), vehicle: saline with Tween-80
[2] = endpoint: mean survival time, dose: 200.0 mg/kg/injection, schedule: Q01DX001 (ip), vehicle: saline with Tween-80
[3] = endpoint: mean survival time, dose: 400.0 mg/kg/injection, schedule: Q01DX001 (ip), vehicle: saline with Tween-80
[4] = endpoint: mean survival time, dose: 50.0 mg/kg/injection, schedule: Q01DX009 (ip), vehicle: saline with Tween-80
[5] = endpoint: mean survival time, dose: 100.0 mg/kg/injection, schedule: Q01DX009 (ip), vehicle: saline with Tween-80
[6] = endpoint: mean survival time, dose: 100.0 mg/kg/injection, schedule: Q04DX003 (ip), vehicle: saline with Tween-80
[7] = endpoint: mean survival time, dose: 200.0 mg/kg/injection, schedule: Q01DX009 (ip), vehicle: saline with Tween-80
[8] = endpoint: mean survival time, dose: 200.0 mg/kg/injection, schedule: Q04DX003 (ip), vehicle: saline with Tween-80
[9] = endpoint: mean survival time, dose: 12.5 mg/kg/injection, schedule: Q01DX009 (ip), vehicle: saline with Tween-80
[10] = endpoint: mean survival time, dose: 25.0 mg/kg/injection, schedule: Q01DX009 (ip), vehicle: saline with Tween-80
[11] = endpoint: mean survival time, dose: 400.0 mg/kg/injection, schedule: Q04DX003 (ip), vehicle: saline with Tween-80
[12] = endpoint: mean survival time, dose: 100.0 mg/kg/injection, schedule: Q01DX009 (ip), vehicle: saline
[13] = endpoint: mean survival time, dose: 200.0 mg/kg/injection, schedule: Q01DX009 (ip), vehicle: saline
[14] = endpoint: mean survival time, dose: 50.0 mg/kg/injection, schedule: Q01DX009 (ip), vehicle: saline

Measured: T/C

O=C(N/N=C/c1ccccc1)c1ccc(Cl)c(Cl)c1
inactive: endpoint: mean survival time, dose: 100.0 mg/kg/injection, schedule: Q01DX009 (ip), vehicle: Klucel (hydroxypropylcellulose) (HPC) 105 % of control | endpoint: mean survival time, dose: 200.0 mg/kg/injection, schedule: Q01DX009 (ip), vehicle: Klucel (hydroxypropylcellulose) (HPC) 101 % of control | endpoint: mean survival time, dose: 400.0 mg/kg/injection, schedule: Q01DX009 (ip), vehicle: Klucel (hydroxypropylcellulose) (HPC) 101 % of control

CCOC(=O)Nc1cccnc1
inactive: endpoint: mean survival time, dose: 75.0 mg/kg/injection, schedule: Q01DX001 (ip), vehicle: saline with Tween-80 104 % of control | endpoint: mean survival time, dose: 150.0 mg/kg/injection, schedule: Q01DX001 (ip), vehicle: saline with Tween-80 98 % of control | endpoint: mean survival time, dose: 300.0 mg/kg/injection, schedule: Q01DX001 (ip), vehicle: saline with Tween-80 106 % of control

CCOc1ccc(/C=N/NC(=O)c2ccccc2NC(=O)C2CC2)cc1OC
inactive: [1] 98 % of control | [2] 94 % of control | [3] 94 % of control

O=[N+]([O-])c1ccc(N=Nc2ccc3c(c2)-c2ccccc2C3=P(c2ccccc2)(c2ccccc2)c2ccccc2)cc1
inactive: [4] 94 % of control | [5] 91 % of control | [6] 91 % of control | [7] 94 % of control | [8] 91 % of control

CCOc1ccccc1C1N(C)CCCN1C
inactive: endpoint: mean survival time, dose: 6.25 mg/kg/injection, schedule: Q01DX009 (ip), vehicle: saline with Tween-80 105 % of control | [9] 100 % of control | [10] 110 % of control

CCCOP(=S)(NCCOC)OCCC
inactive: [6] 103 % of control | [8] 101 % of control | [11] 103 % of control

Cc1c(Cl)c(Cl)c(NS(=O)(=O)c2ccccc2)c(NS(=O)(=O)c2ccccc2)c1Cl
inactive: endpoint: mean survival time, dose: 100.0 mg/kg/injection, schedule: Q04DX003 (ip), vehicle: Klucel (hydroxypropylcellulose) (HPC) 97 % of control | endpoint: mean survival time, dose: 200.0 mg/kg/injection, schedule: Q04DX003 (ip), vehicle: Klucel (hydroxypropylcellulose) (HPC) 104 % of control | endpoint: mean survival time, dose: 400.0 mg/kg/injection, schedule: Q04DX003 (ip), vehicle: Klucel (hydroxypropylcellulose) (HPC) 95 % of control

O=c1[nH]c2ccccc2c(=O)c2ccccc12
inactive: [5] 90 % of control | [6] 101 % of control | [7] 94 % of control | [8] 97 % of control | endpoint: mean survival time, dose: 400.0 mg/kg/injection, schedule: Q01DX009 (ip), vehicle: saline with Tween-80 107 % of control | [11] 101 % of control

CC1CC(=O)C=C(O)C1 (stereo unspecified)
inactive: [6] 93 % of control | [8] 93 % of control | [11] 93 % of control

CCOC(=O)Oc1c(Cl)c(Cl)c(Cl)c(Cl)c1Cl
inactive: [6] 96 % of control | [8] 96 % of control | [11] 95 % of control

Cn1c(C(=O)c2ccncc2)cc2ccccc21
inactive: [1] 103 % of control | endpoint: mean survival time, dose: 100.0 mg/kg/injection, schedule: Q04DX002 (ip), vehicle: saline with Tween-80 100 % of control | [2] 103 % of control | endpoint: mean survival time, dose: 200.0 mg/kg/injection, schedule: Q04DX002 (ip), vehicle: saline with Tween-80 100 % of control | [3] 103 % of control | endpoint: mean survival time, dose: 400.0 mg/kg/injection, schedule: Q04DX002 (ip), vehicle: saline with Tween-80 95 % of control

C[C@]12CC[C@H](OC3OC(CO)C(O)C(O)C3O)C[C@H]1CC[C@@H]1[C@@H]2CC[C@]2(C)[C@@H](C3=CCOC3=O)CC[C@]12O (stereo partly specified)
inactive: endpoint: mean survival time, dose: 0.5 mg/kg/injection, schedule: Q01DX009 (ip), vehicle: saline 110 % of control | endpoint: mean survival time, dose: 1.0 mg/kg/injection, schedule: Q01DX009 (ip), vehicle: saline 110 % of control | endpoint: mean survival time, dose: 2.0 mg/kg/injection, schedule: Q01DX009 (ip), vehicle: saline 107 % of control | endpoint: median survival time, dose: 0.5 mg/kg/injection, schedule: Q01DX009 (ip), vehicle: saline 112 % of control | endpoint: median survival time, dose: 1.0 mg/kg/injection, schedule: Q01DX009 (ip), vehicle: saline 108 % of control | endpoint: median survival time, dose: 2.0 mg/kg/injection, schedule: Q01DX009 (ip), vehicle: saline 113 % of control | endpoint: median survival time, dose: 4.0 mg/kg/injection, schedule: Q01DX009 (ip), vehicle: saline 91 % of control

OCc1cn2c(c1CO)CCC2
inactive: endpoint: mean survival time, dose: 12.5 mg/kg/injection, schedule: Q01DX009 (ip), vehicle: water 105 % of control | endpoint: mean survival time, dose: 22.0 mg/kg/injection, schedule: Q01DX009 (ip), vehicle: other 108 % of control | endpoint: mean survival time, dose: 25.0 mg/kg/injection, schedule: Q01DX009 (ip), vehicle: water 113 % of control | endpoint: mean survival time, dose: 33.0 mg/kg/injection, schedule: Q01DX009 (ip), vehicle: other 113 % of control | endpoint: mean survival time, dose: 50.0 mg/kg/injection, schedule: Q01DX009 (ip), vehicle: other 123 % of control | endpoint: mean survival time, dose: 75.0 mg/kg/injection, schedule: Q01DX009 (ip), vehicle: other 105 % of control

CN(C)C1c2cc(Br)ccc2-c2ccc(Br)cc21
inactive: endpoint: mean survival time, dose: 50.0 mg/kg/injection, schedule: Q01DX001 (ip), vehicle: carboxymethylcellulose (CMC) 101 % of control | endpoint: mean survival time, dose: 100.0 mg/kg/injection, schedule: Q01DX001 (ip), vehicle: carboxymethylcellulose (CMC) 101 % of control | endpoint: mean survival time, dose: 200.0 mg/kg/injection, schedule: Q01DX001 (ip), vehicle: carboxymethylcellulose (CMC) 104 % of control | endpoint: mean survival time, dose: 400.0 mg/kg/injection, schedule: Q01DX001 (ip), vehicle: carboxymethylcellulose (CMC) 104 % of control

CCCCCCCCCCCCc1ccc(CSC(C(=O)OC)C(SCc2ccc(CCCCCCCCCCCC)cc2)C(=O)OC)cc1 (stereo unspecified)
inactive: [12] 102 % of control | [13] 100 % of control | endpoint: mean survival time, dose: 400.0 mg/kg/injection, schedule: Q01DX009 (ip), vehicle: saline 104 % of control

CSCCC(NC=O)C(=O)O (stereo unspecified)
inactive: endpoint: mean survival time, dose: 12.5 mg/kg/injection, schedule: Q01DX001 (ip), vehicle: saline 98 % of control | endpoint: mean survival time, dose: 25.0 mg/kg/injection, schedule: Q01DX001 (ip), vehicle: saline 93 % of control | endpoint: mean survival time, dose: 50.0 mg/kg/injection, schedule: Q01DX001 (ip), vehicle: saline 106 % of control

CC1(C)CC(=O)C2(C)CCC(=O)C=C2C1 (stereo unspecified)
inactive: [6] 101 % of control | [8] 100 % of control | [11] 100 % of control

Cc1cc(NC(=O)Oc2ccccc2)ccc1S(=O)(=O)F
inactive: [14] 98 % of control | [12] 94 % of control | [13] 98 % of control

CNC(=O)Cc1ccc2cc(OC)c(OC)cc2c1
inactive: [5] 100 % of control | [7] 102 % of control

O=C1CCC(=O)ON=c2ccc(cc2)=NO1
inactive: [14] 98 % of control | [12] 102 % of control | [13] 90 % of control

O=C1c2ccccc2C(Cl)=C(Cl)C1(Cl)Cl
inactive: [9] 92 % of control | [10] 101 % of control | [4] 101 % of control | [6] 96 % of control | [11] 100 % of control

Cc1cc(C)cc(OC(=O)/C=C/C(=O)Oc2cc(C)cc(C)c2)c1
inactive: [6] 100 % of control | [8] 95 % of control | [11] 96 % of control

CN(C)C(=S)SCc1ccccc1
inactive: endpoint: mean survival time, dose: 100.0 mg/kg/injection, schedule: Q04DX003 (ip), vehicle: other 111 % of control | endpoint: mean survival time, dose: 200.0 mg/kg/injection, schedule: Q04DX003 (ip), vehicle: other 103 % of control | endpoint: mean survival time, dose: 400.0 mg/kg/injection, schedule: Q04DX003 (ip), vehicle: other 112 % of control

Reference: PubChem BioAssay AID256 (DTP/NCI, 2004)
